Where “and” joins values, the source holds several entries; their conditions need not be identical. Equal values may be shown once.
Legend:
[1] = system: LPS/D-galactosamine-septic shock; assay: Lethal LPS/D-galactosamine septic shock in rats (Example 2); assay type: in vivo, Juvenile Sprague-Dawley rats; settings: monitored for 66 hours
Description: The methodology utilized in Example 1 was used to treat rats. Juvenile Sprague-Dawley rats were induced with LPS/D-galactosamine-septic shock. The animals were monitored for 66 hours after treatment and the resulting data analyzed by the same statistical tests and criteria as in Example 1.

LPS-induced septic shock = assay: Lethal shock caused by LPS alone, survival of mice (Example 3); assay type: in vivo; settings: LPS alone (30 mg/kg), 100 mg/kg i.p., monitored for 4 days
Description: The survival of mice subjected to treatment of the agent and LPS alone pursuant to the methodology of Galanos C, Freudenberg M A, Reutter W. Proc Natl Acad Sci USA. 1979 November; 76 (11)5939-43) was observed. This procedure is believed to evoke a pathophysiological response which is more like that observed during septic shock than that caused by the LPS and galactosamine.
All agents were injected simultaneously via the intraperitoneal route and the response compared to a placebo agent (saline).
The animals were monitored for 4 days after treatment and the resulting data analyzed by the same Fisher exact test and criteria as before.

[2] = system: LPS/D-galactosamine model of sepsis; assay: Serum alanine and aspartate transaminase in LPS/D-galactosamine model of sepsis (Example 5); assay type: in vivo, mice; settings: 200 mg/kg ip with LPS (10 μg/kg)/D-galactosamine (600 mg/kg)
Description: Mice were treated simultaneously with LPS (10 μg/kg) and D-galactosamine (600 mg/kg) (Galanos C, Freudenberg M A, Reutter W. Proc Natl Acad Sci USA. 1979, 76 (11):5939-43) and 5-EPP (200 mg/kg) by intraperitoneal route in a separate set of experiments. They were anesthetized with halothane and blood was collected at different times by cardiac puncture and centrifuged to separate serum. The serum levels of alanine transaminase (ALT) and aspartate transaminase (AST) were measured by a commercial diagnostic company (Idexx Laboratories). The serum levels of tumor necrosis factor-alpha (TNF-α), interleukin-6 (IL-6) and interleukin-12 (IL-12) were determined by commercially available mouse enzyme-linked immunosorbent assay (ELISA) kits (BD BioSciences, San Jose, Calif.).
The methodology utilized in Example 4 was used to measure and analyze the serum enzyme data for statistical significance. The serum levels of proinflammatory cytokines between the 5-EPP treated and saline control groups were analyzed for statistical significance by one-way ANOVA and a Tukey's multiple comparison test (Prism™ for Windows 4.02, Graphpad Software, Inc. San Diego, Calif.).

THP-1 cells = assay: MTS cytotoxicity analysis on THP-1 cells; assay type: cell-based; settings: LPS 1 ng/mL and 5-EPP 0-500 μg/mL for 12 hours
Description: Cytotoxicity analysis was performed on THP-1 cells treated with various concentrations of 5-EPP using the MTS (3-(4,5-dimethylthiazol-2-yl)-5-(3-carboxymethoxyphenyl)-2-(4-sulfophenyl)-2H-tetrazolium, inner salt) assay (Promega, Madison, Wis.).

[3] = system: LPS/D-galactosamine-induced mortality; assay: LPS/D-galactosamine-induced mortality in mice, survival curve (Example 7, FIG. 2); assay type: in vivo; settings: LPS 20 μg/kg + D-galactosamine 600 mg/kg, monitored 4 days
Description: The effects of treatment with 5-EPP on LPS/D-galactosamine-induced mortality was investigated in mice. At least 10 mice in each group were challenged with either a lethal dose of LPS (20 μg/kg) and D-galactosamine (600 mg/kg) or the same dose of LPS/D-galactosamine+different doses of 5-EPP by intraperitoneal route and the morality in each group was monitored at different times for 4 days in order to evaluate the protective effects of 5-EPP against LPS/D-galactosamine-induced mortality.
However, the survival of mice treated with 25 mg/kg of 5-EPP was 45% and 100% at 50 mg/kg, 100 mg/kg and 200 mg/kg with p≦0.0001 as determined by Chi square test.

[4] = LD50 estimate after a single intraperitoneal dose (Example 8); assay type: in vivo; settings: male, Swiss-Webster, mouse, in vivo, ip; mice; single intraperitoneal dose; sigmoidal curve fit, R^2=0.949
Description: (§1) Male Swiss-Webster mice were obtained from standard commercial sources at 7 weeks of age, housed in the laboratory for at least 1 week prior to use and were provided standard mouse chow and water ad libitum. Animals were subjected to a 12 hour/12 hour light-dark cycle.
(§2) Six groups of mice were injected via the intraperitoneal route with 5-EPP (250-500 mg/kg) dissolved in sterile isotonic saline, immediately replaced in their cages and then observed carefully for the next 6-8 hours. A LD50 value was estimated from the mortality data by a non-linear curve fitting program (Prism™ for Windows 4.02).

Male Swiss-Webster mice = assay: as above; assay type: in vivo
Description: as §1, §2

[5] = pH of 20 mg/mL solutions (Example 9); assay type: physicochemical
Description: The pH of two freshly prepared solutions of the compound each at 20 mg/mL concentration was measured with a calibrated Mettler MP-220 pH meter equipped with a pH electrode (model 413). The pH of the solution made in water averaged 7.4 as compared to solutions made in isotonic saline in which the pH averaged 6.21 using triplicate samples in each case, as shown in the table below.

In the case of CCc1ccc(=O)n(-c2ccccc2)c1 [5-EPP, 5-ethyl-1-phenyl-2-(1H)-pyridone], the mortality ([1]; 75 mg/kg) is reported as 14.3% mortality, the mortality ([1]; 200 mg/kg) is reported as 12.5% mortality and the mortality (LPS-induced septic shock) is reported as 30% mortality. For the same compound, the “serum level of alanine transaminase” value ([2]; After 3 Hours) was 109.4 ± 6.1 U/L, the “serum level of aspartate transaminase” value ([2]; After 3 Hours) was 131.3 ± 11.9 U/L and the “serum level of alanine transaminase” value ([2]; After 6 Hours) was 130.0 ± 8.9 U/L. For the same compound, the “serum level of aspartate transaminase” value ([2]; After 6 Hours) was 152.38 ± 14.4 U/L, the “serum level of alanine transaminase” value ([2]; After 12 Hours) was 109.5 ± 8.3 U/L and the “serum level of aspartate transaminase” value ([2]; After 12 Hours) was 173.38 ± 13.0 U/L. For the same compound, the “concentration at which cytotoxicity appears (no cytotoxicity below)” value (THP-1 cells) was “at least 300 μg/mL”, the survival ([3]; 25 mg/kg ip) was 45% and the survival ([3]; 50 mg/kg ip) was 100%. It also gave a survival ([3]; 100 mg/kg ip) of 100%, a survival ([3]; 200 mg/kg ip) of 100% and an LD50 [4] of 380 mg/kg. For the same compound, the “time to ataxia, loss of the righting reflex and labored breathing” value (Male Swiss-Webster mice; highest doses (450-500 mg/kg) ip) was no more than 5 min, the “absorption and distribution, suggested by rapid onset of symptoms” value (Male Swiss-Webster mice; intraperitoneal route) was “rapidly absorbed and distributed across the blood-brain barrier” and the “time over which symptoms gradually lessened until animals appeared unaffected” value (Male Swiss-Webster mice; lower doses ip) was 1 to 2 h. The LD100 (Male Swiss-Webster mice; single intraperitoneal dose, raw mortality data) was 450 to 500 mg/kg, the “pH of the solution, average” value ([5]; 20 mg/mL in isotonic saline) was 6.21 and the “pH of the solution, average” value ([5]; 20 mg/mL in water) was 7.4. The pH ([5]; DI Water, final 5-EPP 20.0 mg/mL) was 7.29 and 7.24, the pH ([5]; Isotonic saline, final 5-EPP 20.0 mg/mL) was 6.13 and the pH ([5]; Isotonic saline, final 5-EPP 20.1 mg/mL) was 6.20.
